{
  "source": "patent US11311576B2",
  "about": "“Methods of use for CAR T cells” (Seattle Children's Hospital, priority 2018, dated 2022)",
  "key": {"MDA-MB-231 tumors": {"system": "MDA-MB-231 tumors", "experiment": "Dietary folate effect on antitumor activity and CRS toxicity, MDA-MB-231 tumors", "format": "in vivo, NSG mice", "protocol": "To study the effect of high dietary folate (FIG. 63A, FIG. 63B, FIG. 63C, FIG. 63D), two sets of NSG mice were placed on either a FA-replete diet (4 mg/kg, Envigo, Indianapolis, Ind.) or a FA-deficient diet (TestDiet, St. Louis, Mo.) upon arrival. On day 0, both sets of the mice received ˜10 million of the same “clinical facsimile” CAR-T cells followed by no EC17 or EC17 SIW at 500 nmol/kg starting on day 3. On the first day of EC17 administration, MDA-MB-231 tumors size averaged around ˜549±184 mm^3 (280-918 mm3) in FA-replete mice, and ˜559±165 mm^3 (356-961 mm^3) in FA-deficient mice.\nPreviously, it was shown that administration of FA or a FA ligand helped reduce the severity of CRS in MDA-MB-231 tumor-bearing mice. To test the long-term effect of dietary folate, mice were maintained on defined diets for ˜73 days and used when their tumors reached ˜549±184 mm3 (280-918 mm^3) in FA-replete mice, and ˜559±165 mm^3 (356-961 mm^3) in FA-deficient mice (FIG. 63A, FIG. 63B, FIG. 63C, FIG. 63D)."}, "HOS-143b": {"system": "HOS-143b", "experiment": "Specific lysis at varying E/T ratios with 10 nM EC17, FR-negative cells", "format": "cell-based, human", "details": "10 nM EC17, E2-CAR-T cells, 48 hours of co-culture", "protocol": "After 24 hours of co-culture, supernatants were harvested to determine tumor cell killing. To study the kinetics of T cell activation and FR correlation in vitro (FIG. 60A, FIG. 60B, FIG. 60C, FIG. 60D, FIG. 60E), co-cultures were carried out in FR+/− cell lines at varying E/T ratios (1:27, 1:9, 1:3, 1:1, 3:1) in the continuous presence of 10 nM EC17. The kinetics of tumor cell killing were quantified after 16 and 48 hours of co-culture. Meanwhile, a portion of the supernatants was taken after 44 hours of co-culture for measurement of IFNg, IL-2 and TNFα. Using Promega's CytoTox 96® LDH assay kit, target cell killing was quantified and expressed as specific lysis (%) which was normalized to basal levels in the absence of EC17 at defined E/T ratios. The LEGENDplex™ human Th1 cytokine panel (BioLegend, San Diego, Calif.) was used to determine CAR-T cell derived cytokines.\nSpecific lysis (%) was quantified after 16 and 48 hours of co-culture, and Th1 cytokines (IFNg, TNFa) in culture media were measured after 44 hours of co-culture. […] It generally took a longer time (48 hours) and a higher E/T ratio (≥1:1) to see significant activity in the lowest FR-expressing OV90 cells (FIG. 60A). The high FR-expressing KB cells responded very slowly and also required a higher E/T ratio (≥1:3) and longer exposure time to cause significant cell death (FIG. 60B, left plot)."}, "E2-CAR-T cells": {"system": "E2-CAR-T cells", "experiment": "3H-EC17 uptake by E2-CAR-T cells", "format": "binding, human", "details": "read-out: Kd of 3H-EC17 (estimated); unsorted E2-CAR-T cells (~24% EGFRt+, ~95:5 CD8/CD4), 2 hour at room temperature", "source_text": "(calculated from the numbers of molecules bound per cell).\nPrinciple Components of CAM Controlled CAR T Cell Therapy. The basic components of the CAR-T cell therapy involve FITC as the pseudo tumor antigen, the high affinity EC17 CAM (a CAM is equivalent to a bridge or the “compound” in this application), and a rationally designed anti-FITC CAR and CAR-modified T cells. The EC17 has already been tested in the clinic for immunotherapy and optical imaging purposes. To directly quantify its bispecific binding affinities, ^3H-EC17 was synthesized and radioligand binding assays were carried out on KB and CHO-β cell lines representing FRα+ and FRβ+ target cells, respectively, and on unsorted EGFRt CAR-T cells representing the effector cells."}, "[1]": {"details": "FA-deficient diet, each subsequent EC17 dose"}, "[2]": {"details": "FA-replete mice, CAR-T cells plus EC17"}},
  "data": [
    {"smiles": "NC1=NC2N=CC(CNc3ccc(C(=O)N[C@@H](CCC(=O)NCCNC(=S)Nc4ccc(-c5c6ccc(=O)cc-6oc6cc(O)ccc56)c(C(=O)O)c4)C(=O)O)cc3)=NC2C(=O)N1", "note": "(stereo partly shown) [EC17, FA-(g)-ethylenediamine-FITC]", "values": [
      {"measurement": "CRS grade", "setting": "MDA-MB-231 tumors; [1]", "value": "2-3"},
      {"measurement": "body weight loss", "setting": "MDA-MB-231 tumors; [1]", "value": "≤ 11.4", "unit": "%"},
      {"measurement": "cures", "setting": "MDA-MB-231 tumors; FA-deficient mice, CAR-T cells plus EC17", "value": "5/5"},
      {"measurement": "symptoms of CRS", "setting": "MDA-MB-231 tumors; FA-replete diet, eight weekly EC17 doses of 500 nmol/kg", "value": "did not show symptoms of CRS"},
      {"measurement": "complete responses", "setting": "MDA-MB-231 tumors; [2]", "value": "2/5"},
      {"measurement": "cures", "setting": "MDA-MB-231 tumors; [2]", "value": "2/5"},
      {"measurement": "partial response", "setting": "MDA-MB-231 tumors; [2]", "value": "1/5"},
      {"measurement": "CRS or body weight loss after first full dose", "setting": "MDA-MB-231 tumors; ~10 million clinical facsimile E2-CAR-T cells, EC17 500 nmol/kg, either diet", "value": "did not cause any CRS or body weight loss"},
      {"measurement": "specific lysis of FR-negative cells", "setting": "HOS-143b", "value": "essentially unharmed"},
      {"measurement": "Kd", "setting": "E2-CAR-T cells", "value": "~130", "unit": "nM"}
    ]}
  ]
}
